Measured values taken from PMC6968383, “Design, synthesis, in vitro and in vivo evaluation of benzylpiperidine-linked 1,3-dimethylbenzimidazolinones as cholinesterase inhibitors against Alzheimer’s disease” (Journal of Enzyme Inhibition and Medicinal Chemistry, 2019).
Read-outs that look alike come from different tables or passages of the source.

What was measured:
[1] = molecular target: T1, AChE (EC 3.1.1.7) from electric eel (Electrophorus electricus, UniProt O42275); test: biochemical; format: biochemical; conditions: for inhibition at 100 µM: read-out: AChE IR (inhibitory rate); for SI (selectivity index = AChE IC50/BChE IC50): eeAChE IC50 / eqBChE IC50
T1 construct: purchased Sigma-Aldrich
T1 sequence (O42275 24-633): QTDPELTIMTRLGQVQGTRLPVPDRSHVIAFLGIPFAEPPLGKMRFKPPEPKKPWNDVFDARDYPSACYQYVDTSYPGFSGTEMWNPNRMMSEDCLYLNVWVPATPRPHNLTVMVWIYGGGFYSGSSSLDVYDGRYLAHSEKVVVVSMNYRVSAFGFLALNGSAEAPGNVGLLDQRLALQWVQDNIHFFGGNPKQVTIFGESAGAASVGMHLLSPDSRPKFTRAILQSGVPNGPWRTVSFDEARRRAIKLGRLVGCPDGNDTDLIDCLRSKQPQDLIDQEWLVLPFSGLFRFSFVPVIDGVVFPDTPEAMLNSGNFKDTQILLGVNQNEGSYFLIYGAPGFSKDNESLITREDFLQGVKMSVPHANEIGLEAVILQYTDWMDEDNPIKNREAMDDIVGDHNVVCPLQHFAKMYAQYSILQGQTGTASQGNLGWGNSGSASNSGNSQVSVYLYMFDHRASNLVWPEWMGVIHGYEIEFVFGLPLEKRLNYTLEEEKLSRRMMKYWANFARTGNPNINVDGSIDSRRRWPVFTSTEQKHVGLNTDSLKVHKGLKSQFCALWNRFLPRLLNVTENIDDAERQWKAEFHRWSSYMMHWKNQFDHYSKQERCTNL
Procedure: (§1) The data were expressed as IC50 values (Table 1).
(§2) The inhibitory activities of the target compounds towards AChE (from Electrophorus electricus (electric eeAChE, Sigma-Aldrich) and horse serum BChE (eqBChE, Sigma-Aldrich) or human AChE – huAChE; human BuChE – huBuChE (huAChE, huBuChE, Sigma-Aldrich) were measured by Ellman’s method. In 96-well plates, a mixture of phosphate buffer (0.1 M, pH 8.0, […]), 5,5′-dithiobis-2-nitrobenzoic acid (DTNB, 60 µL), acetylcholinestrase or butyrylcholinesterase (20 µL, 5 IU/mL) and different concentration of the compound solution (30 µL) was pre-incubated for 5 min followed by the addition of the substrate (acetylthiocholine iodide or butyrylthiocholine iodide, 20 µL). […] The measurement of each concentration for each compound was detected in triplicate. GraphPad Prism 6.0 (GraphPad Software, Inc., La Jolla, CA) was used for data processing. The inhibition curve was fitted by plotting percentage enzyme activity (100% for the reference) versus the logarithm of the concentration of tested compound. The half-maximal inhibitory concentration (IC50) values were calculated according to the inhibition curve and the data were shown in the layout of mean ± SEM by GraphPad Prism 6.0.

[2] = molecular target: T2, BChE (EC 3.1.1.8) from horse serum (Equus caballus, UniProt P81908); test: biochemical; conditions: for inhibition at 100 µM: compound at 100 μM, read-out: BChE IR (inhibitory rate)
T2 construct: horse serum BChE (eqBChE, Sigma-Aldrich); purchased Sigma-Aldrich; host or cells: horse serum
T2 sequence (P81908 whole entry): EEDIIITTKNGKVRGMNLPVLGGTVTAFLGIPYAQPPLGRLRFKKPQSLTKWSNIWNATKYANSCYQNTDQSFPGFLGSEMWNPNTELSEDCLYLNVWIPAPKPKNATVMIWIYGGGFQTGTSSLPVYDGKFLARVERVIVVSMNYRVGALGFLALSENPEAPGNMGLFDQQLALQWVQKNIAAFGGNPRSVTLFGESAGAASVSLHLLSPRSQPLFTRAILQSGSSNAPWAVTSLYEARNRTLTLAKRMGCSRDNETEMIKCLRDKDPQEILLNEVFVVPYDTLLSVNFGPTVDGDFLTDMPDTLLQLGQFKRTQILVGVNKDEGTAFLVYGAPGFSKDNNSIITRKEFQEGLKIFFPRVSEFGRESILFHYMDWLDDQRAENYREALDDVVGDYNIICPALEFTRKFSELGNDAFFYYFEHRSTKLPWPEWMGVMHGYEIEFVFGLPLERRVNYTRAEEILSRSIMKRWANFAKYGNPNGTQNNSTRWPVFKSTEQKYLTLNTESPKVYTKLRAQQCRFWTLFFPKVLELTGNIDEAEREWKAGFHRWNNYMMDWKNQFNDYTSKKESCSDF
Procedure: as §1, §2

[3] = eeAChE, mean ± SEM of triplicate independent experiments, read-out: AChE IC50
[4] = eqBChE, mean ± SEM of triplicate independent experiments, read-out: BChE IC50

## Cn1c(=O)n(C)c2cc(C(=O)NCC3CCN(Cc4ccccc4)CC3)ccc21 [Compound 9a, N-((1-benzylpiperidin-4-yl)methyl)-1,3-dimethyl-2-oxo-2,3-dihydro-1H-benzo[d]imidazole-5-carboxamide]
[1]; [3]
  IC50: 3.14 ± 1.12 µM
[2]; eqBChE
  inhibition at 100 µM: 43.9%

## Cc1ccccc1CN1CCC(CNC(=O)c2ccc3c(c2)n(C)c(=O)n3C)CC1 [Compound 9b, 1,3-dimethyl-N-((1–(2-methylbenzyl)piperidin-4-yl)methyl)-2-oxo-2,3-dihydro-1H-benzo[d]imidazole-5-carboxamide]
[1]; [3]
  IC50: 8.08 ± 2.66 µM
[2]; eqBChE
  inhibition at 100 µM: 41.4%

## Cc1cccc(CN2CCC(CNC(=O)c3ccc4c(c3)n(C)c(=O)n4C)CC2)c1 [Compound 9c, 1,3-dimethyl-N-((1–(3-methylbenzyl)piperidin-4-yl)methyl)-2-oxo-2,3-dihydro-1H-benzo[d]imidazole-5-carboxamide]
[1]; [3]
  IC50: 3.83 ± 2.04 µM
[2]; eqBChE
  inhibition at 100 µM: 44%

## Cc1ccc(CN2CCC(CNC(=O)c3ccc4c(c3)n(C)c(=O)n4C)CC2)cc1 [Compound 9d, 1,3-dimethyl-N-((1–(4-methylbenzyl)piperidin-4-yl)methyl)-2-oxo-2,3-dihydro-1H-benzo[d]imidazole-5-carboxamide]
[1]; [3]
  IC50: 25.7 ± 12.3 µM
[2]; eqBChE
  inhibition at 100 µM: 37.8%

## Cc1ccc(CN2CCC(CNC(=O)c3ccc4c(c3)n(C)c(=O)n4C)CC2)cc1C [Compound 9e, N-((1–(3,4-dimethylbenzyl)piperidin-4-yl)methyl)-1,3-dimethyl-2-oxo-2,3-dihydro-1H-benzo[d]imidazole-5-carboxamide]
[1]; [3]
  IC50: 9.97 ± 2.52 µM
[2]; eqBChE
  inhibition at 100 µM: 30.8%

## COc1cccc(CN2CCC(CNC(=O)c3ccc4c(c3)n(C)c(=O)n4C)CC2)c1 [Compound 9f, N-((1–(3-methoxybenzyl)piperidin-4-yl)methyl)-1,3-dimethyl-2-oxo-2,3-dihydro-1H-benzo[d]imidazole-5-carboxamide]
[1]
  inhibition at 100 µM: 33.5%
[2]; eqBChE
  inhibition at 100 µM: 25%

## COc1ccc(CN2CCC(CNC(=O)c3ccc4c(c3)n(C)c(=O)n4C)CC2)cc1 [Compound 9g, N-((1–(4-methoxybenzyl)piperidin-4-yl)methyl)-1,3-dimethyl-2-oxo-2,3-dihydro-1H-benzo[d]imidazole-5-carboxamide]
[1]; [3]
  IC50: 5.17 ± 2.25 µM
[2]; eqBChE
  inhibition at 100 µM: 41.5%

## Cn1c(=O)n(C)c2cc(C(=O)NCC3CCN(Cc4ccccc4F)CC3)ccc21 [Compound 9h, N-((1–(2-fluorobenzyl)piperidin-4-yl)methyl)-1,3-dimethyl-2-oxo-2,3-dihydro-1H-benzo[d]imidazole-5-carboxamide]
[1]; [3]
  IC50: 16.2 ± 4.34 µM
[2]; eqBChE
  inhibition at 100 µM: 30%

## Cn1c(=O)n(C)c2cc(C(=O)NCC3CCN(Cc4cccc(F)c4)CC3)ccc21 [Compound 9i, N-((1–(3-fluorobenzyl)piperidin-4-yl)methyl)-1,3-dimethyl-2-oxo-2,3-dihydro-1H-benzo[d]imidazole-5-carboxamide]
[1]; [3]
  IC50: 2.93 ± 1.96 µM
[2]; [4]
  IC50: 95.1 ± 59.3 µM

## Cn1c(=O)n(C)c2cc(C(=O)NCC3CCN(Cc4ccc(F)cc4)CC3)ccc21 [Compound 9j, N-((1–(4-fluorobenzyl)piperidin-4-yl)methyl)-1,3-dimethyl-2-oxo-2,3-dihydro-1H-benzo[d]imidazole-5-carboxamide]
[1]
  SI (selectivity index = AChE IC50/BChE IC50): 1.27
[1]; [3]
  IC50: 4.7 ± 2.01 µM
[2]; [4]
  IC50: 3.71 ± 1.88 µM

## Cn1c(=O)n(C)c2cc(C(=O)NCC3CCN(Cc4ccccc4Cl)CC3)ccc21 [Compound 9k, N-((1–(2-chlorobenzyl)piperidin-4-yl)methyl)-1,3-dimethyl-2-oxo-2,3-dihydro-1H-benzo[d]imidazole-5-carboxamide]
[1]; [3]
  IC50: 3.92 ± 1.2 µM
[2]; eqBChE
  inhibition at 100 µM: 46.5%

## Cn1c(=O)n(C)c2cc(C(=O)NCC3CCN(Cc4cccc(Cl)c4)CC3)ccc21 [Compound 9l, N-((1–(3-chlorobenzyl)piperidin-4-yl)methyl)-1,3-dimethyl-2-oxo-2,3-dihydro-1H-benzo[d]imidazole-5-carboxamide]
[1]; [3]
  IC50: 6 ± 3.31 µM
[2]; eqBChE
  inhibition at 100 µM: 36.9%

## Cn1c(=O)n(C)c2cc(C(=O)NCC3CCN(Cc4ccc(Cl)cc4)CC3)ccc21 [Compound 9m, N-((1–(4-chlorobenzyl)piperidin-4-yl)methyl)-1,3-dimethyl-2-oxo-2,3-dihydro-1H-benzo[d]imidazole-5-carboxamide]
[1]; eeAChE
  fold increase of inhibitory activity towards AChE compared to 9a: 15 fold
[1]; [3]
  IC50: 0.21 ± 0.03 µM
[2]; eqBChE
  inhibition at 100 µM: 49.9%

## Cn1c(=O)n(C)c2cc(C(=O)NCC3CCN(Cc4ccccc4Br)CC3)ccc21 [Compound 9n, N-((1–(2-bromobenzyl)piperidin-4-yl)methyl)-1,3-dimethyl-2-oxo-2,3-dihydro-1H-benzo[d]imidazole-5-carboxamide]
[1]; [3]
  IC50: 8.87 ± 4.56 µM
[2]; eqBChE
  inhibition at 100 µM: 43.5%

## Cn1c(=O)n(C)c2cc(C(=O)NCC3CCN(Cc4cccc(Br)c4)CC3)ccc21 [Compound 9o, N-((1–(3-bromobenzyl)piperidin-4-yl)methyl)-1,3-dimethyl-2-oxo-2,3-dihydro-1H-benzo[d]imidazole-5-carboxamide]
[1]; [3]
  IC50: 3.69 ± 1.83 µM
[2]; eqBChE
  inhibition at 100 µM: 42.8%

## Cn1c(=O)n(C)c2cc(C(=O)NCC3CCN(Cc4ccc(Br)cc4)CC3)ccc21 [Compound 9p, N-((1–(4-bromobenzyl)piperidin-4-yl)methyl)-1,3-dimethyl-2-oxo-2,3-dihydro-1H-benzo[d]imidazole-5-carboxamide]
[1]; [3]
  IC50: 11.1 ± 6.42 µM
[2]; eqBChE
  inhibition at 100 µM: 38.5%

## COc1ccc(CN2CCC(CNC(=O)c3ccc4[nH]ccc4c3)CC2)cc1 [Compound 11a, N-((1–(4-methoxybenzyl)piperidin-4-yl)methyl)-1H-indole-5-carboxamide]
[1]
  IC50: 38.1 ± 12.8 µM
  SI (selectivity index = AChE IC50/BChE IC50): 3.54
[2]
  IC50: 10.8 ± 5.55 µM

## COc1ccc(CN2CCC(CNC(=O)c3ccc4[nH]ncc4c3)CC2)cc1 [Compound 11b, N-((1–(4-methoxybenzyl)piperidin-4-yl)methyl)-1H-indazole-5-carboxamide]
[1]
  inhibition at 100 µM: 48.6%
[2]; eqBChE
  inhibition at 100 µM: 44.6%

## O=C(NCC1CCN(Cc2ccccc2Cl)CC1)c1ccc2[nH]ncc2c1 [Compound 11c, N-((1–(2-chlorobenzyl)piperidin-4-yl)methyl)-1H-indazole-5-carboxamide]
[1]
  IC50: 5.44 ± 2.22 µM
  SI (selectivity index = AChE IC50/BChE IC50): 0.26
[2]
  IC50: 21.3 ± 5 µM

## COc1ccc(CN2CCC(CNC(=O)c3ccc4[nH]cnc4c3)CC2)cc1 [Compound 11d, N-((1–(4-methoxybenzyl)piperidin-4-yl)methyl)-1H-benzo[d]imidazole-5-carboxamide]
[1]
  inhibition at 100 µM: 18.8%
[2]; eqBChE
  inhibition at 100 µM: 16.5%

## O=C(NCC1CCN(Cc2ccccc2Cl)CC1)c1ccc2[nH]cnc2c1 [Compound 11e, N-((1–(2-chlorobenzyl)piperidin-4-yl)methyl)-1H-benzo[d]imidazole-5-carboxamide]
[1]
  IC50: 7.48 ± 3.1 µM
[2]; eqBChE
  inhibition at 100 µM: 42.1%

## O=C(NCC1CCN(Cc2ccccc2)CC1)c1ccc2[nH]nnc2c1 [Compound 11f, N-((1-benzylpiperidin-4-yl)methyl)-1H-benzo[d][1,2,3]triazole-5-carboxamide]
[1]
  IC50: 0.46 ± 0.4 µM
[2]; eqBChE
  inhibition at 100 µM: 43.1%

## Cn1c(=O)n(C)c2cc(S(=O)(=O)NCC3CCN(Cc4ccccc4)CC3)ccc21 [Compound 15a, N-((1-benzylpiperidin-4-yl)methyl)-1,3-dimethyl-2-oxo-2,3-dihydro-1H-benzo[d]imidazole-5-sulphonamide]
[1]
  SI (selectivity index = AChE IC50/BChE IC50): 0.84
[1]; [3]
  IC50: 0.38 ± 0.08 µM
[2]; [4]
  IC50: 0.45 ± 0.02 µM

## Cc1cccc(CN2CCC(CNS(=O)(=O)c3ccc4c(c3)n(C)c(=O)n4C)CC2)c1 [Compound 15c, 1,3-dimethyl-N-((1–(3-methylbenzyl)piperidin-4-yl)methyl)-2-oxo-2,3-dihydro-1H-benzo[d]imidazole-5-sulphonamide]
[1]
  SI (selectivity index = AChE IC50/BChE IC50): 1.14
[1]; [3]
  IC50: 0.54 ± 0.14 µM
[2]; [4]
  IC50: 0.47 ± 0.17 µM

## Cc1ccc(CN2CCC(CNS(=O)(=O)c3ccc4c(c3)n(C)c(=O)n4C)CC2)cc1 [Compound 15d, 1,3-dimethyl-N-((1–(4-methylbenzyl)piperidin-4-yl)methyl)-2-oxo-2,3-dihydro-1H-benzo[d]imidazole-5-sulphonamide]
[1]
  SI (selectivity index = AChE IC50/BChE IC50): 0.24
[1]; [3]
  IC50: 24.8 ± 3.48 µM
[2]; [4]
  IC50: 100 ± 22.1 µM

## COc1cccc(CN2CCC(CNS(=O)(=O)c3ccc4c(c3)n(C)c(=O)n4C)CC2)c1 [Compound 15e, N-((1–(3-methoxybenzyl)piperidin-4-yl)methyl)-1,3-dimethyl-2-oxo-2,3-dihydro-1H-benzo[d]imidazole-5-sulphonamide]
[1]
  SI (selectivity index = AChE IC50/BChE IC50): 0.45
[1]; [3]
  IC50: 9.35 ± 2.32 µM
[2]; [4]
  IC50: 20.3 ± 3.08 µM

## Cn1c(=O)n(C)c2cc(S(=O)(=O)NCC3CCN(Cc4cccc(F)c4)CC3)ccc21 [Compound 15f, N-((1–(3-fluorobenzyl)piperidin-4-yl)methyl)-1,3-dimethyl-2-oxo-2,3-dihydro-1H-benzo[d]imidazole-5-sulphonamide]
[1]
  SI (selectivity index = AChE IC50/BChE IC50): 0.75
[1]; [3]
  IC50: 1.04 ± 0.48 µM
[2]; [4]
  IC50: 1.37 ± 0.74 µM
